Patent EP0388510A1, “Pharmaceutical compositions and their use in the prophylaxis or the treatment of bacterial infectious diseases” (HOECHST AKTIENGESELLSCHAFT, priority 1989, dated 1990)

Test system: Methicillin-resistente Staphylokokken
Assay: Minimal inhibitory concentration in the agar dilution test, 39 clinical isolates
Assay type: cell-based
Protocol: Der überraschend gefundene synergistische Effekt einer Kombination von Decaplanin und Cefpirom konnte auch mit 39 klinischen Isolaten (Methicillin-resistente Staphylokokken) gezeigt werden, von denen die meisten eine ausgeprägte Resistenz gegenüber Cefpirom zeigten (MHK > 16 µg/ml). Dazu wurde die minimale Hemmkonzentration im Agarverdünnungstest von Cefpirom, Decaplanin und einer Mischung gleicher Anteile von Cefpirom und Decaplanin bestimmt. Wie Fig. 1 zeigt, ist die antibakterielle Aktivität der Mischung deutlich höher als die jeder Einzelkomponente. Aus Fig. 1 geht hervor, daß die als Beurteilungskriterium üblicherweise herangezogene minimale Hemmkonzentration, bei der 90 % der Stämme gehemmt werden (MHK90%), für die Mischung beider Komponenten mit 0,7 µg/ml am niedrigsten ist. (MHK90% für Decaplanin: 3,5 µg/ml, MHK90% für Cefpirom: 64 µg/ml).

| SMILES | MHK90% (minimal inhibitory concentration at which 90 % of the 39 isolates are inhibited, from Fig. 1) | MIC (read-out: MHK) | MIC90 (read-out: MHK90%) |
| --- | --- | --- | --- |
| CNC(CC(C)C)C(=O)NC1C(=O)NC(CC(N)=O)C(=O)NC2C(=O)NC3C(=O)NC(C(=O)NC(C(=O)O)c4cc(O)cc(O)c4-c4cc3ccc4O)C(OC3CC(C)(N)C(O)C(C)O3)c3ccc(cc3)Oc3cc2cc(c3OC2OC(CO)C(O)C(O)C2OC2OC(C)C(O)C(O)C2O)Oc2ccc(cc2Cl)C1O (stereo not drawn) [Decaplanin] | 3,5 µg/ml |  |  |
| CO/N=C(\C(=O)N[C@@H]1C(=O)N2C(C(=O)[O-])=C(C[n+]3cccc4c3CCC4)CS[C@H]12)c1csc(N)n1 [Cefpirom] |  | > 16 µg/mL | 64 µg/mL |
